Results reported in patent publication US11150251B2, “Bi-functional arginine-glycine-aspartic acid (RGD) peptides and methods to promote angiogenesis” (Clemson University Research Foundation, priority 2016, dated 2021).

Test system: HUVECs
Experiment: HUVEC vascular network formation in 3D multi-signaling alginate hydrogels (integrin-binding peptide + QK peptide)
Format: cell-based, human
Settings: 5% (w/w) MMP-responsive QK peptides, preliminary data
Excerpt: To synergize with the α1 peptide, we used the α1 peptide and an MMP-responsive QK peptide (i.e., GPQG↓IAGKLTWQELYQLKYKGI, SEQ ID NO:41) to prepare an alginate-based injectable, multi-signaling hydrogels (FIG. 9). The MMP-responsive QK peptide was selected to introduce cell-dictated local release of angiogenic factors to recapitulate the pro-angiogenic microenvironment in vivo, where matrix bound VEGF is released by MMPs. Alginates was selected because it has been used as a biocompatible, injectable hydrogel-forming material to treat ischemic diseases.
We developed a modular approach to prepare the multi-signaling hydrogels (FIG. 10). Briefly, we have prepared alginates functionalized with α1 peptide (10% (w/w)) as well as alginates functionalized with MMP-responsive QK peptide (10% (w/w)) using click chemistry. We then mixed these two alginates at a ratio 1:1 (w/w) to prepare multi-signaling hydrogels to simultaneously engage αvβ3, VLA-6 integrins and VEGFR2. This modular approach allowed us to rapidly prepare alginates with different peptide functionalization to screen for an optimal formulation to support EC morphogenesis.

Substance: GPQG↓IAGKLTWQELYQLKYKGI (GPQGIAGKLTWQELYQLKYKGI) [MMP-responsive QK peptides, QK peptide with MMP degradable linkage]
- EC vascular network formation at given QK peptide content: sufficient to promote EC vascular network formation
